The test system of test [1] is EPHB1 kinase domain. The test is described as follows: pTyr-Var library bacterial peptide display kinase screen (enrichment scores).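 Note: log2 fold change in enrichment of variant over reference.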 It counts as biochemical, human. The settings on record: sheet EPHB1; effect of the variant peptide relative to its reference peptide in the pTyr-Var library screen (enrichment scores).
Test [2] concerns the target T1, c-Src kinase domain (Homo sapiens, UniProt P12931). The test is described as above. It counts as biochemical. To be noted: sheet "Src".
Test [3] concerns EPHB2 kinase domain. The test is described as above. Format: biochemical, human. The settings on record: sheet EPHB2; effect of variant peptide relative to its reference peptide in the pTyr-Var library screen (enrichment scores).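 Note: log2 fold change in enrichment of variant over reference.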
Test [4] has as its target T2, c-Abl kinase domain (Mus musculus, UniProt P00520).
T2 sequence (P00520 242-493 limits assumed): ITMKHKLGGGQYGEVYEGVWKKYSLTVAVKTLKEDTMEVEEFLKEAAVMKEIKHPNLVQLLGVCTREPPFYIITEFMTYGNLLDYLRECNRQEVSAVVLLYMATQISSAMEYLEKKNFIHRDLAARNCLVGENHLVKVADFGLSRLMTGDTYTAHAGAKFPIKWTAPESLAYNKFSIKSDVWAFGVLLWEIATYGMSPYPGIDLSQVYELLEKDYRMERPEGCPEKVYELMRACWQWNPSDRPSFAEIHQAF
As to the kind of experiment: RP-HPLC assay to measure peptide phosphorylation kinetics. Format: biochemical. To be noted: purified peptide substrate.

The test system of test [5] is EPHB1 kinase domain. As to the kind of experiment: ADP-Quest continuous fluorimetric kinase assay (initial rates of consensus peptides). It counts as biochemical, human. The settings on record: peptide 100 or 20 μM, kinase 10–50 nM; Figure 2C and supplement 2. An excerpt: A fluorescence-based assay from Eurofins (ADP Quest) was used to measure the Michaelis-Menten kinetic parameters for phosphorylation of the consensus peptides by purified tyrosine kinase domains. In this assay, ADP production as a result of kinase activity is coupled to the production of resorufin, a fluorophore that emits signal at 590 nm. For all experiments, the assay reactions were set up as described in the provided assay kit protocol, in a 384 well plate format. The peptide solutions were serially diluted in 100 mM Tris, pH 8.0, and the kinases were diluted to 50 nM in buffer (10 mM HEPES, 100 mM NaCl, 1 mM TCEP, 5 mM MgCl2, 10% (v/v) glycerol). The final reaction mixtures contained 10 nM of kinase with 100 μM of ATP. […] Phosphorylation reaction progress was monitored by measuring fluorescence at excitation 530 nm and emission 590 nm every 2 min at 37 °C on a plate reader (BioTek Synergy Neo 2). The fluorescence units (RFU) were converted to μM ADP by comparison to a standard curve, and the initial rates were extracted from the linear regime of the reaction progress curves. Initial rates were also measured for samples containing each kinase but lacking a peptide substrate, to account for background ATP hydrolysis. This background rate was subtracted from the rates measured in the presence of peptide. […]

Test [6] addresses T1, c-Src kinase domain. As to the kind of experiment: RP-HPLC assay to measure peptide phosphorylation kinetics. It counts as biochemical. The settings on record: purified peptide substrate. Here is the method: To validate the enrichment scores observed in the c-Src screening data, the phosphorylation rates were measured in vitro with the purified catalytic domain of c-Src and synthetic 11-residue peptides derived from sequences in the pTyr-Var library. […] Reactions were initiated by adding 1 mM ATP. At various time points, 100 μL aliquots were removed and quenched by the addition of EDTA to a final concentration of 25 mM. Each time point sample was analyzed by analytical RP-HPLC, monitoring absorbance at 214 nm. Forty μL of each time point was injected onto a C18 column (ZORBAX 300 SB-C18, 5 μm, 4.6x150 mm). The solvent system used was water with 0.1% trifluoroacetic acid (solvent A) and acetonitrile with 0.1% trifluoroacetic acid (solvent B). […] The fractional product peak area was plotted as a function of reaction time, and the initial linear regime of this plot was fitted to a straight line to determine a reaction rate. Rates were corrected for substrate and enzyme concentration. Reactions were done in triplicate or quadruplicate.

Test [7] concerns Fer kinase domain. As to the kind of experiment: pTyr-Var library bacterial peptide display kinase screen (enrichment scores).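 Note: log2 fold change in enrichment of variant over reference.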 It counts as biochemical, mouse. To be noted: sheet "Fer".
The target of test [8] is human c-Src SH2 domain (residues 143-250) (human, UniProt P12931-1 143-250, biotin on the Avi tag (co-expression with the biotin ligase BirA)). The test is described as follows: fluorescence polarisation; direct titration: varying concentrations of c-Src SH2 with 30 nM fluorescent peptide, 15 min; 60 mM HEPES pH 7.2, 75 mM KCl, 75 mM NaCl, 1 mM EDTA, 0.05% Tween 20; 25 °C; quadratic binding equation. To be noted: both partners purified. (Polarisation of emitted light reports the rotation of a fluorescent probe.)

The target of test [9] is mouse c-Abl kinase domain (residues 232-502) (mouse) (UniProt P00520).
The mark [10] stands for this setting: effect of the variant peptide relative to its reference peptide in the pTyr-Var library screen.
Setting [11] is: value of the variant peptide against its reference peptide in the pTyr-Var library screen with Fer.
Setting [12] is: variant peptide versus its reference peptide in the pTyr-Var library screen.

Square brackets hold non-standard residues; d marks the D form. * marks the point of attachment. FITC = O=C1OC2(c3ccc(O)cc3Oc3cc(O)ccc32)c2ccc(NC(=S)*)cc21; pY = N[C@@H](Cc1ccc(OP(=O)(O)O)cc1)C(=O)O; Ahx = NCCCCCC(=O)O
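Throughout, for screen: log2 fold change in enrichment of variant over reference.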

mouse c-Abl kinase domain (residues 232-502) (mouse), sequence (P00520 232-502): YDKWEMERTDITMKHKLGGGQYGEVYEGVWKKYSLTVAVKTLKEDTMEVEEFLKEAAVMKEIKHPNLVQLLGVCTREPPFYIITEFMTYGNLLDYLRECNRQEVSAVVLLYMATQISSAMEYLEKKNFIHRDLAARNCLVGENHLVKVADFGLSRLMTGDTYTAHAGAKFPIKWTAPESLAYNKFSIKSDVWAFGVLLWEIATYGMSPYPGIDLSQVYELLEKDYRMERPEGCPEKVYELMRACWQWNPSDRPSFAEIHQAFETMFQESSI

In the case of “Ac-GNLLIYTELGK-NH2 [HGD_Y166_F169L, pTyr-Var library variant peptide, non-canonical c-Abl substrate]”, the Screen in test [1] was 1.156; in [2] (setting [10]), -0.3242; in [3] it was 1.177. For the same molecule, the “Phosphorylation Rate” value in test [4] was 0.238 s⁻¹.

Turning to “Ac-GPPEPNYEVIPPKKKG-NH2 [EPHB1 Consensus, EPHB1 consensus substrate peptide from X5-Y-X5 screen]”, the “phosphorylation of consensus peptide by EPHB1 (initial rate relative to cognate consensus)” value in [5] is “did not prefer”.

As to Ac-IGEGTYGQVFK-NH2 [CDK13_Y716_YF], in test [6], the “Phosphorylation Rate” value stood at 3.100 s⁻¹.

For the molecule Ac-IGEGTYGTVFK-NH2 [CDK5-Y15], the “Phosphorylation Rate” value was determined as 2.587 s⁻¹ in [6] and 0.085 s⁻¹ in [4].

The molecule “Ac-IGEGTYRQVFK-NH2 [CDK13_Y716_G717R_YF, pTyr-Var library variant phosphosite peptide]” gave a Screen in [2] (setting [10]) of -4.535. Moreover, the “Phosphorylation Rate” value in [6] turned out to be 0.195 s⁻¹.

Take ITNHIYTWVDP [DFNB31_Y234_V229I]: the Screen is reported as 0.06659 in test [1], -0.03067 in test [7] (setting [11]), 0.3882 in test [2] (setting [10]) and -0.0087 in [3].

Turning to ITNLLYHVVGG [GBA_Y412_W417G], the Screen in test [1] is on record as 0.07416; in [7] (setting [11]) it was -1.01; in test [2] (setting [10]), -0.2777; in test [3], -0.0356.

Turning to ITSLLYHVVGW [GBA_Y412_N409S], the Screen in [1] is listed as -0.08421; in [7] (setting [11]) it was 0.08882; in test [2] (setting [10]), -0.3669; in test [3], -0.2083.

With LDAFIYDAALL [GRIN2A_Y730_V734L], the Screen is reported as -0.2525 in test [1], -0.3557 in test [7] (setting [11]), 0.1286 in test [2] (setting [10]) and -0.3341 in test [3].

Turning to LEDPMYDIIRD [RP9_Y142_H137L], the Screen in test [1] is recorded as 0.4802; in test [7] (variant peptide relative to its reference peptide, pTyr-Var library screen enrichment) it was 0.5422; in test [2] (setting [12]) it was 0.5395; in [3], 0.7516.

Consider SNTFLYQLVFD [EXO1_Y284_N279S], for which the Screen in [1] was 0.05167; in test [7] (setting [11]) it was -0.008577; in [2] (setting [10]), -0.03965; in [3], -0.053.

Consider TLSGIYQFNIA [FOXL2_Y81_I84N_YF], for which the Screen in test [1] was -4.223; in test [7] (setting [11]) it was -1.015; in test [2] (setting [10]) it was -0.3308; in [3], -4.083.

For the molecule TQNAVYSAANF [DDX5_Y535_G533A_YF], the Screen in [1] came out at 1.023; in test [7] (setting [11]), 0.4164; in test [2] (setting [10]), 0.6379; in [3] it was 1.01.

Consider TTSQLYDAMPI [PDPK1_Y9_V12M], for which the Screen in test [1] is -0.6854; in test [7] (setting [11]), -0.6658; in test [2] (setting [12]), -0.9144; in test [3], -1.368.

B1: fluorescently-labeled c-Src-SH2 consensus peptide FITC-Ahx-GDG(pY)EEISPLLL-NH2 (peptide)
peptide: {FITC-Ahx}-GDG[pY]EEISPLLL-NH2
SMILES: CC[C@H](C)[C@H](NC(=O)[C@H](CCC(=O)O)NC(=O)[C@H](CCC(=O)O)NC(=O)[C@H](Cc1ccc(OP(=O)(O)O)cc1)NC(=O)CNC(=O)[C@H](CC(=O)O)NC(=O)CNC(=O)CCCCCNC(=S)Nc1ccc2c(c1)C(=O)OC21c2ccc(O)cc2Oc2cc(O)ccc21)C(=O)N[C@@H](CO)C(=O)N1CCC[C@H]1C(=O)N[C@@H](CC(C)C)C(=O)N[C@@H](CC(C)C)C(=O)N[C@@H](CC(C)C)C(N)=O
notes: also called fluorescent peptide; source: gift from the Amacher lab (Western Washington University)
A word on the Kd: it is the equilibrium constant for the complex coming apart. Regarding B1, the Kd in test [8] is 160 nM.

B2: Abl Consensus peptide Ac-…-NH2 (peptide)
peptide: Ac-GPDEPIYAVPPIKKKG-NH2
Take B2: in test [9], the KM (μM) of phosphorylation, Michaelis-Menten analysis, ADP-Quest assay was determined as 6 µM.

These data come from PMC10065799, “High-throughput profiling of sequence recognition by tyrosine kinases and SH2 domains using bacterial peptide display” (eLife, 2023).
